For the assay, the target named is T1, human NAPE-PLD (Homo sapiens, UniProt Q6IQ20).
T1 construct: Full length human cDNA NAPE-PLD was obtained from Natsuo Ueda; made in house; host or cells: HEK293T cells, transient transfection (pcDNA3.1); membrane fraction used
T1 sequence (Q6IQ20 whole entry): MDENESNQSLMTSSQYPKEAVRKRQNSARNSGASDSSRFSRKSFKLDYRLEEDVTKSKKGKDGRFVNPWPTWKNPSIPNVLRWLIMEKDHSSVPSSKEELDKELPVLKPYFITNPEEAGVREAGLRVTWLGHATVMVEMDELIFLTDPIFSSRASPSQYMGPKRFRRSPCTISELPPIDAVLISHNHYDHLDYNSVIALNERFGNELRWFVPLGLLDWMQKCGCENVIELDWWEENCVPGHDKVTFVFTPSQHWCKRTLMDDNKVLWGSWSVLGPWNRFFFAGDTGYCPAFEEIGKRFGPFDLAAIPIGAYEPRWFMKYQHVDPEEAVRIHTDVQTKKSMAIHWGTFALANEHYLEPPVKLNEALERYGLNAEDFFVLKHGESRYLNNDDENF
As to the kind of experiment: In vitro NAPE-PLD activity assay. Type of assay: biochemical. Particulars: membrane protein fraction of HEK293T cells overexpressing human NAPE-PLD; substrate PED6 1 µM; 30 minutes preincubation at 37 °C. As to the method:
Full length human cDNA NAPE-PLD was obtained from Natsuo Ueda^1 and cloned into mammalian expression vector pcDNA3.1, containing a C-terminal Flag-tag and genes for ampicillin and neomycin resistance. All plasmids were grown in XL-10 Z-competent cells and prepped (Maxi Prep, Qiagen). Sequence analysis for the confirmation of the sequences was performed at the Leiden Genome Technology Centre.
HEK293T were cultured at 37 °C and 7% CO2 in DMEM (Sigma Aldrich, D6546) with glutamax, penicillin (100 µg/ml), streptomycin (100 µg/ml) and 10% New Born Calf Serum iron supplemented (Hyclone SH30072.03). Cells were passaged twice a week to appropriate confluence.
24 hours before transfection 10^7 cells are seeded on a 15 cm dish. Two hours before transfection medium is refreshed, low volume. Transfection is performed with PEI in a ratio of 3:1 with human NAPE-PLD or Mock pcDNA3.1 Neo, 20 µg per dish. Medium is refreshed after 24 hours and cells are harvested after 72 hours.
Cell pellets are re-suspended in lysis buffer: 20 mM Hepes, 2 mM DTT, 0.25 M sucrose, 1 mM MgCl2, 2.5 U/ml benzonase and incubated 30 minutes on ice. The cytosolic fraction (supernatant) is separated from the membranes by ultra-centrifugation (32000 rpm for 30 minutes 100,000g). The pellet is resuspended in storage buffer: 20 mM Hepes, 2 mM DTT (membrane fraction). All samples are stored at -80°C. Enzyme concentrations are determined using a Bradford assay.
The NAPE-PLD activity assay is based on a previously reported method with small alterations.^2 The membrane protein fraction from transient overexpression of human NAPE-PLD in HEK293T cells was diluted to 0.4 mg/ml in assay buffer: 50 mM Tris-HCl (pH 7.5), 0.02% Triton X-100, 150 mM NaCl. The substrate PED6 (Invitrogen) 1 mM stock was consecutively diluted in DMSO (10x) and in assay buffer (10x) to make a 10 µM working solution. […] The assay is performed in a dark Greiner 96 wells plate, end volume 100 µl. The compound or DMSO is incubated with membrane protein lysate (final concentration 0.04 mg/ml) for 30 minutes at 37 °C. […] Mock lysate with DMSO is used for background substraction. IC50 curves are generated used Graphpad Prism v6.
Turning to `CNc1cc(C(=O)NCC2CC2)nc(N(C)CCc2ccccc2)n1` [Example 21, N-(cyclopropylmethyl)-2-(methyl(phenethyl)amino)-6-(methylamino)pyrimidine-4-carboxamide], it took 851 nM to reach half-maximal inhibition (IC50).
The figure for `CN(CCc1ccncc1)c1nc(C(=O)NCC2CC2)cc(N2CCOCC2)n1` [Example 81, N-(cyclopropylmethyl)-2-(methyl(2-(pyridin-4-yl)ethyl)amino)-6-morpholinopyrimidine-4-carboxamide] is 11500 nM; for `O=C(NCC1CC1)c1cc(N2CCOCC2)nc(N2CCN(C(=O)OCc3ccccc3)C(c3ccccc3)C2)n1` (stereo not shown) [Example 74, benzyl 4-(4-((cyclopropylmethyl)carbamoyl)-6-morpholinopyrimidin-2-yl)-2-phenylpiperazine-1-carboxylate] it is 3240 nM; for `CN(CCc1ccccc1)c1nc(C(=O)NCC2CC2)cc(N2CCC(c3ccccc3)C2)n1` (stereo not shown) [Example 29, N-(cyclopropylmethyl)-2-(methyl(phenethyl)amino)-6-(3-phenylpyrrolidin-1-yl)pyrimidine-4-carboxamide] it is 1410 nM.
`CN(CCc1ccccc1)c1cc(C(=O)NCC2CC2)nc(N(C)CCc2ccccc2)n1` [Example 27, N-(cyclopropylmethyl)-2,6-bis(methyl(phenethyl)amino)pyrimidine-4-carboxamide] had an IC50 of 155 nM. Compared with the last compound, the IC50 is about 9.1-fold lower.
Under `O=C(NCC1CC1)c1cc(N2CCOCC2)nc(N2CCCC(c3ccccc3)C2)n1` (stereo not shown) [Example 52, N-(cyclopropylmethyl)-6-morphol ino-2-(3-phenylpiperidin-1-yl)pyrimidine-4-carboxamide] stands 380 nM; under `O=C(NCC1CC1)c1cc(N2CCOCC2)nc(N2CCc3ccccc3C2)n1` [Example 63, N-(cyclopropylmethyl)-2-(3,4-dihydroisoquinolin-2(1H)-yl)-6-morphol inopyrimidine-4-carboxamide], 2240 nM; under `CN(CCc1ccccc1)c1cc(C(=O)NCC2CC2)nc(N2CCOCC2)n1` [Example 55, N-(cyclopropylmethyl)-6-(methyl(phenethyl)amino)-2-morpholinopyrimidine-4-carboxamide], 4070 nM.
The figure for `Cc1ccccc1CCN(C)c1nc(C(=O)NCC2CC2)cc(N2CCOCC2)n1` [Example 78, N-(cyclopropylmethyl)-2-(methyl(2-methylphenethyl)amino)-6-morpholinopyrimidine-4-carboxamide] is 891 nM; for `CN(CCc1ccccc1)c1nc(C(=O)NCC2CC2)cc(N2CCC(F)(F)C2)n1` [Example 31, N-(cyclopropylmethyl)-6-(3,3-difluoropyrrolidin-1-yl)-2-(methyl(phenethyl)amino)pyrimidine-4-carboxamide] it is 1170 nM.
Under `CN(CCc1ccccc1)c1nc(Oc2cccnc2)cc(C(=O)NCC2CC2)n1` [Example 1, N-(cyclopropylmethyl)-2-(methyl(phenethyl)amino)-6-(pyridin-3-yloxy)pyrimidine-4-carboxamide] stands 5250 nM; under `CN(CCc1ccccc1)c1nc(C(=O)NCC2CC2)cc(N2CCC2)n1` [Example 25, N-(cyclopropylmethyl)-2-(methyl(phenethyl)amino)-6-(azetidin-1-yl)pyrimidine-4-carboxamide], 427 nM.
Compound `O=C(NCC1CC1)c1cc(N2CCOCC2)nc(N2CCOC(c3ccccc3)C2)n1` (stereo not shown) [Example 37, N-(cyclopropylmethyl)-6-morpholino-2-(2-phenylmorpholino)pyrimidine-4-carboxamide] showed an IC50 of 1230 nM.
`O=C(NCC1CC1)c1cc(N2CCOCC2)nc(N(CCc2ccccc2)Cc2ccccc2)n1` [Example 65, 2-(benzyl(phenethyl)amino)-N-(cyclopropylmethyl)-6-morpholinopyrimidine-4-carboxamide] showed an IC50 of 1120 nM. The IC50 values of the last two compounds are within 1.5-fold of each other.
`O=C(NCC1CC1)c1cc(N2CC[C@H](O)C2)nc(N2CCC[C@@H](c3ccccc3)C2)n1` [Example 40, N-(cyclopropylmethyl)-6-((S)-3-hydroxypyrrolidin-1-yl)-2-((S)-3-phenylpiperidin-1-yl)pyrimidine-4-carboxamide]: it took 72.4 nM to reach half-maximal inhibition (IC50).
Under `CN(CCO)c1cc(C(=O)NCC2CC2)nc(N(C)CCc2ccccc2)n1` [Example 30, N-(cyclopropylmethyl)-6-((2-hydroxyethyl)(methyl)amino)-2-(methyl(phenethyl)amino)pyrimidine-4-carboxamide] stands 1000 nM.
Compound `CC(=O)N1CCN(c2cc(C(=O)NCC3CC3)nc(N(C)CCc3ccccc3)n2)CC1` [Example 12, 6-(4-acetylpiperazin-1-yl)-N-(cyclopropylmethyl)-2-(methyl(phenethyl)amino)pyrimidine-4-carboxamide] showed an IC50 of 1200 nM.
Under `CCNC(=O)c1cc(N2CCOCC2)nc(N(C)CCc2ccccc2)n1` [Example 4, N-ethyl-2-(methyl (phenethyl)amino)-6-morpholinopyrimidine-4-carboxamide] stands 4570 nM.
As to `COc1ccc(CC2CCCCN2c2nc(C(=O)NCC3CC3)cc(N3CCOCC3)n2)cc1` (stereo not shown) [Example 73, N-(cyclopropylmethyl)-2-(2-(4-methoxybenzyl)piperidin-1-yl)-6-morpholinopyrimidine-4-carboxamide], half-maximal inhibition (IC50) required 2570 nM.
The figure for `CN(CCc1ccccc1)c1nc(C(=O)NCCO)cc(N2CCOCC2)n1` [Example 36, N-(2-hydroxyethyl)-2-(methyl(phenethyl)amino)-6-morpholinopyrimidine-4-carboxamide] is 5010 nM; for `CN(CCc1cccc(Oc2ccccc2)c1)c1nc(C(=O)NCC2CC2)cc(N2CCOCC2)n1` [Example 61, N-(cyclopropylmethyl)-2-(methyl(3-phenoxyphenethyl)amino)-6-morpholinopyrimidine-4-carboxamide] it is 3470 nM; for `O=C(NCC1CC1)c1cc(N2CCOCC2)nc(NCCc2ccccc2)n1` [Example 47, N-(cyclopropylmethyl)-6-morpholino-2-(phenethylamino)pyrimidine-4-carboxamide] it is 2750 nM.
The figure for `O=C(NCC1CC1)c1cc(N2CCOCC2)nc(N2CCCC2Cc2ccccc2)n1` (stereo not shown) [Example 59, 2-(2-benzylpyrrolidin-1-yl)-N-(cyclopropylmethyl)-6-morpholinopyrimidine-4-carboxamide] is 380 nM; for `CN(CCc1ccccc1Oc1ccccc1)c1nc(C(=O)NCC2CC2)cc(N2CCOCC2)n1` [Example 67, N-(cyclopropylmethyl)-2-(methyl(2-phenoxyphenethyl)amino)-6-morpholinopyrimidine-4-carboxamide] it is 603 nM.
Under `O=C(NCC1CC1)c1cc(N2CCOCC2)nc(N(CCc2ccccc2)c2ccccc2)n1` [Example 77, N-(cyclopropylmethyl)-6-morpholino-2-(phenethyl(phenyl)amino)pyrimidine-4-carboxamide] stands 501 nM.
`CCCNC(=O)c1cc(N2CCOCC2)nc(N(C)CCc2ccccc2)n1` [Example 14, N-propyl-2-(methyl (phenethyl)amino)-6-morpholino-pyrimidine-4-carboxamide] showed an IC50 of 1820 nM.
Turning to `COC1CCN(c2cc(C(=O)NCC3CC3)nc(N(C)CCc3ccccc3)n2)C1` (stereo not shown) [Example 34, N-(cyclopropylmethyl)-6-(3-methoxypyrrolidin-1-yl)-2-(methyl(phenethyl)amino)pyrimidine-4-carboxamide], the IC50 is 708 nM.
Under `O=C(NCC1CC1)c1cc(N2CCOCC2)nc(N2CCN(Cc3ccccc3)C(c3ccccc3)C2)n1` (stereo not shown) [Example 35, 2-(4-benzyl-3-phenylpiperazin-1-yl)-N-(cyclopropylmethyl)-6-morpholinopyrimidine-4-carboxamide] stands 1000 nM; under `CN(CCc1ccccc1)c1nc(C(=O)NCC2CC2)cc(N2CCOCC2)n1` [Example 49, N-(cyclopropylmethyl)-2-(methyl(phenethyl)amino)-6-morpholinopyrimidine-4-carboxamide], 708 nM.
In turn, `CN(Cc1ccccc1)c1cc(C(=O)NCC2CC2)nc(N(C)CCc2ccccc2)n1` [Example 28, N-(cyclopropylmethyl)-2-(methyl(phenethyl)amino)-6-(benzyl(methyl)amino)pyrimidine-4-carboxamide] had an IC50 of 1100 nM.
Under `COc1ccc(CCN(C)c2nc(C(=O)NCC3CC3)cc(N3CCOCC3)n2)cc1` [Example 64, N-(cyclopropylmethyl)-2-((4-methoxyphenethyl)(methyl)amino)-6-morpholinopyrimidine-4-carboxamide] stands 3470 nM.

(Values after patent EP3575287A1, “INHIBITORS OF N-ACYLPHOSPHATIDYLETHANOLAMINE PHOSPHOLIPASE D (NAPE-PLD)” (Universiteit Leiden, priority 2018, dated 2019).)
